# Data from PMC11078746 (Nature, 2024).
# “And” between values parts separate entries of the source, which are not always exact repeats. Identical values can stand only once.
# Key:
# Assay in all cases: MSI xenograft model efficacy
# Format in all cases: in vivo, mouse
# Ishikawa xenograft = settings: Endometrial carcinoma, 60 or 120 mg/kg
# Procedure: (§1) All animal studies were conducted in accordance with ethics and procedures covered by permit BS-2275 and BS-1975 issued by the Kantonales Veterinäramt Basel-Stadt and in strict adherence to guidelines of the Eidgenössisches Tierschutzgesetz and the Eidgenössische Tierschutzverordnung, Switzerland. All animal studies were approved by the internal ethics committee. All animals had access to food and water ad libitum and were identified with transponders. They were housed in a specific-pathogen-free facility in IVC racks under a 12 h–12 h light–dark cycle. To establish cell-line-derived xenograft models, 6–7-week-old female athymic nude (Crl:NU(NCr)-Foxn1^nu) or SCID-BEIGE (CB17.Cg-PrkdcscidLystbg-J/Crl) mice from Charles River were engrafted subcutaneously with 5 million tumour cells in HBSS (H6648, Sigma-Aldrich). For SNU-407, Lovo, IM95, RL95.2, Ishikawa and IGROV-1, the cells were concentrated in 50% Matrigel (354234, Corning). Patient-derived xenografts were induced and expanded by transplantation as previously described. […] For the efficacy experiment, mice were randomized into groups (n = 5–6) for a mean tumour size of 100–150 mm^3. […] Blood samples were collected on day 7 and 91. […] Tumour responses are reported with the measures of tumour volumes from the treatment start. […] Animals were randomized (n = 3) and tumour samples were collected at 0, 1, 4, 8 and 24 h on the first day and then collected 4 h after the last treatment on day 3, 8, 10, 14 (including a 24 h timepoint), 17 and 21. Tumours were excised, weighed, either frozen in liquid nitrogen and cryogenic dry pulverized with the CryoPrep system (model CP-02, Covaris) or processed to FFPE after fixation. […] On day 12, blood samples were collected for PK analysis. On the last day (3 h after the last treatment), tumours were excised, weighed, frozen in liquid nitrogen and cryogenic dry pulverized for PD analysis.
# 5148-HX xenograft = settings: Gastric carcinoma, 60 or 120 mg/kg
# Procedure: as §1
# JHUEM2 xenograft = settings: JHUEM2, Endometrial carcinoma; 60 or 120 mg/kg
# Procedure: as §1
# 1119-HX xenograft = settings: colorectal carcinoma, 60 or 120 mg/kg
# Procedure: as §1
# SNU407 xenograft = settings: SNU407, colorectal carcinoma; 60 or 120 mg/kg
# Procedure: as §1
# [1] = tested on: HCT116 TP53 null xenograft; settings: for Mean TVol / Tumour volume (TVol): HCT116 p53 null, 60 mpk; for Tumour volume (TVol): single mouse, 60 mg/kg
# Procedure: as §1
# 3205-HX xenograft = settings: colorectal carcinoma, 60 or 120 mg/kg
# Procedure: as §1
# 5495-HX xenograft = settings: colorectal carcinoma, 60 or 120 mg/kg
# Procedure: as §1
# 23132/87 xenograft = settings: 23132/87, Gastric carcinoma; 60 or 120 mg/kg
# Procedure: as §1
# LoVo xenograft = settings: colorectal carcinoma, 60 or 120 mg/kg
# Procedure: as §1
# IM95 xenograft = settings: IM95, Gastric carcinoma; 60 or 120 mg/kg
# Procedure: as §1
# 2861-HX xenograft = settings: colorectal carcinoma, 60 or 120 mg/kg
# Procedure: as §1
# RKO xenograft = settings: colorectal carcinoma, 60 or 120 mg/kg
# Procedure: as §1
# 5441-HX xenograft = settings: colorectal carcinoma, 60 or 120 mg/kg
# Procedure: as §1
# LIM2405 xenograft = settings: LIM2405, colorectal carcinoma; 60 or 120 mg/kg
# Procedure: as §1
# LS411N xenograft = settings: colorectal carcinoma, 60 or 120 mg/kg
# Procedure: as §1
# HEC6 xenograft = settings: HEC6, Endometrial carcinoma; 60 or 120 mg/kg
# Procedure: as §1
# TOV21G xenograft = settings: Ovarian carcinoma, 60 or 120 mg/kg
# Procedure: as §1
smiles,measurement,setting,value
CCc1c(N2CCN(C(=O)c3ncnc(C)c3O)CC2)c(=O)n2nc(C3=CCOCC3)nc2n1CC(=O)Nc1ccc(C(F)(F)F)cc1Cl [HRO761],Best average response,Ishikawa xenograft,-70
same,Best average response,5148-HX xenograft,-36
same,Best average response,JHUEM2 xenograft,400
same,Best average response,1119-HX xenograft,-14
same,Best average response,SNU407 xenograft,-40
same,Best average response,"[1]; HCT116 P53 null, colorectal carcinoma, 60 or 120 mg/kg",-100
same,Mean TVol,[1]; day 0,151.89 mm3
same,Tumour volume (TVol),[1]; day 0,114.28 mm3 and 172.75 mm3 and 98.96 mm3 and 162.60 mm3 and 112.69 mm3 and 250.04 mm3
same,Mean TVol,[1]; day 3,243.48 mm3
same,Tumour volume (TVol),[1]; day 3,162.58 mm3 and 332.14 mm3 and 148.24 mm3 and 251.18 mm3 and 212.27 mm3 and 354.49 mm3
same,Mean TVol,[1]; day 7,201.27 mm3
same,Tumour volume (TVol),[1]; day 7,115.63 mm3 and 278.64 mm3 and 112.69 mm3 and 190.13 mm3
same,Mean TVol,[1]; day 10,167.32 mm3
same,Mean TVol,[1]; day 14,78.55 mm3
same,Tumour volume (TVol),[1]; day 14,57.94 mm3 and 66.94 mm3 and 44.25 mm3 and 61.17 mm3 and 71.26 mm3 and 169.76 mm3
same,Mean TVol,[1]; day 17,56.92 mm3
same,Tumour volume (TVol),[1]; day 17,38.70 mm3 and 22.79 mm3 and 27.88 mm3 and 45.55 mm3 and 49.32 mm3 and 157.29 mm3
same,Mean TVol,[1]; day 21,29.14 mm3
same,Tumour volume (TVol),[1]; day 21,20.42 mm3 and 11.20 mm3 and 10.29 mm3 and 21.47 mm3 and 18.24 mm3 and 93.23 mm3
same,Mean TVol,[1]; day 24,15.47 mm3
same,Tumour volume (TVol),[1]; day 24,13.85 mm3 and 5.24 mm3 and 5.28 mm3 and 4.25 mm3 and 8.53 mm3 and 55.64 mm3
same,Mean TVol,[1]; day 29,6.87 mm3
same,Tumour volume (TVol),[1]; day 29,2.43 mm3 and 4.29 mm3 and 1.21 mm3 and 1.27 mm3 and 2.76 mm3 and 29.26 mm3
same,Mean TVol,[1]; day 31,4.02 mm3
same,Tumour volume (TVol),[1]; day 31,2.71 mm3 and 2.05 mm3 and 0.39 mm3 and 0.99 mm3 and 0.92 mm3 and 17.07 mm3
same,Mean TVol,[1]; day 35,3.16 mm3
same,Tumour volume (TVol),[1]; day 35,1.81 mm3 and 0.00 mm3 (2×) and 0.17 mm3 and 0.75 mm3 and 16.24 mm3
same,Mean TVol,[1]; day 38,4.17 mm3
same,Tumour volume (TVol),[1]; day 38,0.58 mm3 and 0.00 mm3 (3×) and 1.01 mm3 and 23.40 mm3
same,Mean TVol,[1]; day 42,4.73 mm3
same,Tumour volume (TVol),[1]; day 42,0.90 mm3 and 0.00 mm3 (4×) and 27.46 mm3
same,Mean TVol,[1]; day 45,6.85 mm3
same,Tumour volume (TVol),[1]; day 45,1.68 mm3 and 0.00 mm3 (4×) and 39.40 mm3
same,Mean TVol,[1]; day 49,7.67 mm3
same,Tumour volume (TVol),[1]; day 49,0.00 mm3 (5×) and 46.01 mm3
same,Mean TVol,[1]; day 53,9.89 mm3
same,Tumour volume (TVol),[1]; day 53,0.00 mm3 (5×) and 59.36 mm3
same,Mean TVol,[1]; day 56,14.65 mm3
same,Tumour volume (TVol),[1]; day 56,0.00 mm3 (5×) and 87.90 mm3
same,Mean TVol,[1]; day 60,17.60 mm3
same,Tumour volume (TVol),[1]; day 60,0.63 mm3 and 0.00 mm3 (4×) and 104.97 mm3
same,Best average response,3205-HX xenograft,400
same,Best average response,5495-HX xenograft,-50
same,Best average response,23132/87 xenograft,200
same,Best average response,LoVo xenograft,-20
same,Best average response,IM95 xenograft,-90
same,Best average response,2861-HX xenograft,-70
same,Best average response,RKO xenograft,300
same,Best average response,5441-HX xenograft,7
same,Best average response,LIM2405 xenograft,44
same,Best average response,LS411N xenograft,-100
same,Best average response,HEC6 xenograft,-75
same,Best average response,TOV21G xenograft,190
